Results as given in patent US20240277713A1 (Kadmon Corporation, LLC, priority 2022, published 2024).
Marks after values point to notes of the source that are not given here.

System: Sprague-Dawley rats
Test: Embryo-fetal developmental toxicity study in Sprague-Dawley rats (Example 3)
Details: for Discharge, Brown, Vulva, times observed/animals / Discharge, Red, Vulva, times observed/animals / Ear/portion of ear missing, Ear/left, times observed/animals / Hair sparse, Abdominal region, times observed/animals / Hair sparse, Cervical region, times observed/animals / Hair sparse, Forefoot/left, times observed/animals / Hair sparse, Forefoot/right, times observed/animals / Hair sparse, Forelimb/left, times observed/animals / Hair sparse, Forelimb/right, times observed/animals / Hair sparse, Hind limb/left, times observed/animals / Hair sparse, Hind limb/right, times observed/animals / Hair sparse, Lumbar region, times observed/animals / Hair sparse, Thoracic region, times observed/animals / Scabbed area, Face, times observed/animals / Scabbed area, Forelimb/right, times observed/animals / Scabbed area, Tail, times observed/animals / Scabbed area, Thoracic region, times observed/animals / Tail missing - portion, times observed/animals: GD 6-20
Procedure: For this study, a total of 140 time-mated female rats (approximately 8 to 10 weeks of age) were obtained from Charles River Laboratories, Raleigh, North Carolina, and acclimated from the time of arrival until the time of dosing on GD 6. During the acclimation period, the animals were observed twice daily with respect to general health and any signs of disease. All animals were given a detailed clinical examination and body weights were recorded prior to selection. […] Food consumption was collected during the acclimation period.
Animals received in-life and postmorten evaluations. […] All fetuses were given an external and visceral or skeletal examination.
Detailed clinical observations were made daily from GD 6 through 20 (4 hours±1 hour postdose on dosing days).
Food consumption for main study animals was measured and recorded on the corresponding body weight days and calculated for the same intervals.
The placentae were examined grossly.
The foci, if detected, were considered early resorptions, and data from this female were included in mean calculations

CC(C)NC(=O)COc1cccc(-c2nc(Nc3ccc4[nH]ncc4c3)c3ccccc3n2)c1 [belumosudil, 2-{3-[4-(1H-indazol-5-ylamino)-2-quinazolinyl]phenoxy}-N-(propan-2-yl) acetamide]
Adjusted Weight Change From Day 6, Mean (50 mg base/kg/day (N = 25)): 47.1^b
Final Body Weight, Mean (50 mg base/kg/day (N = 25)): 335.2^b g
Gravid Uterine Weight, Mean (50 mg base/kg/day (N = 25)): 68.8 g
Discharge, Brown, Vulva, times observed/animals (50 mg base/kg/day): 1/1
Discharge, Red, Vulva, times observed/animals (50 mg base/kg/day): 4/4
Ear/portion of ear missing, Ear/left, times observed/animals (50 mg base/kg/day): 0/0
Hair sparse, Abdominal region, times observed/animals (50 mg base/kg/day): 0/0
Hair sparse, Cervical region, times observed/animals (50 mg base/kg/day): 8/1
Hair sparse, Forefoot/left, times observed/animals (50 mg base/kg/day): 0/0
Hair sparse, Forefoot/right, times observed/animals (50 mg base/kg/day): 0/0
Hair sparse, Forelimb/left, times observed/animals (50 mg base/kg/day): 10/2
Hair sparse, Forelimb/right, times observed/animals (50 mg base/kg/day): 10/2
Hair sparse, Hind limb/left, times observed/animals (50 mg base/kg/day): 0/0
Hair sparse, Hind limb/right, times observed/animals (50 mg base/kg/day): 0/0
Hair sparse, Lumbar region, times observed/animals (50 mg base/kg/day): 0/0
Hair sparse, Thoracic region, times observed/animals (50 mg base/kg/day): 7/1
Scabbed area, Face, times observed/animals (50 mg base/kg/day): 0/0
Scabbed area, Forelimb/right, times observed/animals (50 mg base/kg/day): 0/0
Scabbed area, Tail, times observed/animals (50 mg base/kg/day): 0/0
Scabbed area, Thoracic region, times observed/animals (50 mg base/kg/day): 0/0
Tail missing - portion, times observed/animals (50 mg base/kg/day): 0/0
Fetal Body Weight Females, % Difference From Control (150 mg base/kg/day): −7.7%
Fetal Body Weight Genders Combined, % Difference From Control (150 mg base/kg/day): −7.3%
Fetal Body Weight Males, % Difference From Control (150 mg base/kg/day): −8.0%
Maternal Body Weight Change GD 6-9 (150 mg base/kg/day): −4.2^b g
Maternal Body Weight Change GD 6-18 (150 mg base/kg/day): 55.4^b g
Maternal Body Weight Change GD 6-20 (150 mg base/kg/day): 97.1^b g
Maternal Body Weight Change GD 18-20 (150 mg base/kg/day): 41.8^b g
Maternal Body Weight GD 9 (150 mg base/kg/day): 215.8^b g
Maternal Body Weight GD 12 (150 mg base/kg/day): 232.1^b g
Maternal Body Weight GD 15 (150 mg base/kg/day): 244.0^b g
Maternal Body Weight GD 18 (150 mg base/kg/day): 275.3^b g
Maternal Body Weight GD 20 (150 mg base/kg/day): 317.0^b g
Maternal Food Consumption GD 6-9 (150 mg base/kg/day): 10.0^b
Maternal Food Consumption GD 6-18 (150 mg base/kg/day): 15.4^b
Maternal Food Consumption GD 6-20 (150 mg base/kg/day): 17.4^b
Maternal Food Consumption GD 18-20 (150 mg base/kg/day): 29.4
Mean Fetal Body Weight Females (150 mg base/kg/day): 3.72 g
Mean Fetal Body Weight Genders Combined (150 mg base/kg/day): 3.82 g
Mean Fetal Body Weight Males (150 mg base/kg/day): 3.91 g
Adjusted Final Body Weight, Mean (150 mg base/kg/day (N = 20)): 252.7^b g
Adjusted Weight Change From Day 6, Mean (150 mg base/kg/day (N = 20)): 32.8^b
Final Body Weight, Mean (150 mg base/kg/day (N = 20)): 317.0^b g
Gravid Uterine Weight, Mean (150 mg base/kg/day (N = 20)): 64.3 g
Discharge, Brown, Vulva, times observed/animals (150 mg base/kg/day): 4/4
Discharge, Red, Vulva, times observed/animals (150 mg base/kg/day): 1/1
Ear/portion of ear missing, Ear/left, times observed/animals (150 mg base/kg/day): 15/1
Hair sparse, Abdominal region, times observed/animals (150 mg base/kg/day): 0/0
Hair sparse, Cervical region, times observed/animals (150 mg base/kg/day): 0/0
Hair sparse, Forefoot/left, times observed/animals (150 mg base/kg/day): 27/3
Hair sparse, Forefoot/right, times observed/animals (150 mg base/kg/day): 23/3
Hair sparse, Forelimb/left, times observed/animals (150 mg base/kg/day): 14/2
Hair sparse, Forelimb/right, times observed/animals (150 mg base/kg/day): 30/3
Hair sparse, Hind limb/left, times observed/animals (150 mg base/kg/day): 6/1
Hair sparse, Hind limb/right, times observed/animals (150 mg base/kg/day): 6/1
Hair sparse, Lumbar region, times observed/animals (150 mg base/kg/day): 12/1
Hair sparse, Thoracic region, times observed/animals (150 mg base/kg/day): 12/2
Scabbed area, Face, times observed/animals (150 mg base/kg/day): 0/0
Scabbed area, Forelimb/right, times observed/animals (150 mg base/kg/day): 0/0
Scabbed area, Tail, times observed/animals (150 mg base/kg/day): 13/2
Scabbed area, Thoracic region, times observed/animals (150 mg base/kg/day): 0/0
Tail missing - portion, times observed/animals (150 mg base/kg/day): 11/1
NOAEL for fetal developmental toxicity (pregnant rats): 50 mg base/kg/day
NOAEL for maternal toxicity (pregnant rats): 15 mg base/kg/day
mortality (rat, in vivo): No treatment related mortality
